The values below come from patent US20140121201A1, “REGULATORY NETWORK FOR Th17 SPECIFICATION AND USES THEREOF” (priority 2012, published 2014).

Assay [1] has as its system primary human macrophages. Conditions: cited from earlier work.
Assay [2] deals with T1, STAT3 (mouse, UniProt P42227 2-770).
T1 construct: Endogenous transcription factor, probed by western blot (anti-STAT3, Cell Signaling) in the IRF4 immunoprecipitate
Kind of assay: co-immunoprecipitation of endogenous IRF4 from Th17-polarized cell lysate, western blot for STAT3. How it is done:
Naïve CD4 positive T cells were sorted and cultured under Th17 polarizing conditions for 48 h prior to assay. Whole cells lysates were prepared with high salt buffer (10 mM Tris, 420 mM NaCl, 0.5% NP40, 1 mM EDTA), sonicated, spun to remove insoluble particles, and diluted to a final concentration of 150 mM NaCl for co-immunoprecipitation. Endogenous IRF4 was immunoprecipitated using anti-IRF4 antibody in the presence or absence of 50 ug/ml ethidium bromide.
Background: In western blotting, separated proteins are transferred to a membrane and probed.

T1 sequence (P42227 2-770 limits assumed): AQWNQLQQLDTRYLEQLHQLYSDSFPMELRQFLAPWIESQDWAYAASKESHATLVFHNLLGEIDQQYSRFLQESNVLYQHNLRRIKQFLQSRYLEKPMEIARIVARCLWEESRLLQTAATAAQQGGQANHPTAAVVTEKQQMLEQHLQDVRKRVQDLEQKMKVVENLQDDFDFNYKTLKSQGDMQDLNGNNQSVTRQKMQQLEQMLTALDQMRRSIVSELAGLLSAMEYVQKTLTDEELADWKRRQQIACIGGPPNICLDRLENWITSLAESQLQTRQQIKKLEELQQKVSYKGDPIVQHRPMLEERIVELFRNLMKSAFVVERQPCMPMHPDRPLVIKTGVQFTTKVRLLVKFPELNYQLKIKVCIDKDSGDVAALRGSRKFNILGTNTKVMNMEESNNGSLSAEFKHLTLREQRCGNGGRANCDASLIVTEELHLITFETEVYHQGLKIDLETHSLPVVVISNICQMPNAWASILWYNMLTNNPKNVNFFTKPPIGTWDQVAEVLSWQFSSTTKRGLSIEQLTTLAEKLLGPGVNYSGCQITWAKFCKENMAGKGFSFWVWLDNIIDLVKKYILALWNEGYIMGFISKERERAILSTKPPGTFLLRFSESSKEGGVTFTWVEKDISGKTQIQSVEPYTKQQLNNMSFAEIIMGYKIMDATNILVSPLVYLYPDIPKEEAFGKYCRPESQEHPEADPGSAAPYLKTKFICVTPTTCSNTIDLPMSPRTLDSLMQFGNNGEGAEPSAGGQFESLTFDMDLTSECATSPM

For orientation: IC50 means the concentration at which inhibition is half-maximal. Turning to `CCOC(=O)CCNc1cc(N2CCc3ccccc3CC2)nc(-c2ccccn2)n1` [GSK-J4], the half-maximal inhibitory concentration (IC50) in assay [1] was 9 µM.

B1: IRF4 (other, mouse, UniProt Q64287 1-450, looked up)
chain: MNLETGSRGSEFGMSAVSCGNGKLRQWLIDQIDSGKYPGLVWENEEKSVFRIPWKHAGKQDYNREEDAALFKAWALFKGKFREGIDKPDPPTWKTRLRCALNKSNDFEELVERSQLDISDPYKVYRIVPEGAKKGAKQLTLDDTQMAMGHPYPMTAPYGSLPAQQVHNYMMPPHDRSWRDYAPDQSHPEIPYQCPVTFGPRGHHWQGPSCENGCQVTGTFYACAPPESQAPGIPIEPSIRSAEALALSDCRLHICLYYRDILVKELTTTSPEGCRISHGHTYDVSNLDQVLFPYPDDNGQRKNIEKLLSHLERGLVLWMAPDGLYAKRLCQSRIYWDGPLALCSDRPNKLERDQTCKLFDTQQFLSELQVFAHHGRPAPRFQVTLCFGEEFPDPQRQRKLITAHVEPLLARQLYYFAQQNTGHFLRGYELPEHVTTPDYHRSLRHSSIQE
notes: Endogenous transcription factor, immunoprecipitated with an anti-IRF4 antibody from Th17-polarized cell lysate; also called Endogenous IRF4
With B1, in assay [2], the binding result is reported as “no binding”.
